In brackets after ≈: the same amount, converted by molar mass.
Assays:
Type in all cases: cell-based
[1] = tested on: Francisella tularensis subsp. Holarctica Strain LVSR NR-597; experiment: microbe, parasite or virus in culture
[2] = tested on: Burkholderia thailandensis Brett et al ATCC: 700388; experiment: microbe, parasite or virus in culture
[3] = tested on: Bacillus thuringiensis; settings: Bacillus thuringiensis Berliner ATCC: 10792; for MIC: Bacillus thuringiensis, read-out: MIC
[4] = tested on: Candida glabrata; experiment: Candida glabrata MIC / MFC; settings: Nakaseomyces glabratus, Candida glabrata #584 (Table 2); for MIC: read-out: MIC; for MFC: minimum fungicidal concentration, read-out: MFC
[5] = tested on: Bacillus subtilis; experiment: Bacillus subtilis MIC / MBC; settings: for MBC: Bacillus subtilis NRRL: B-571, minimum bactericidal concentration; for MIC: Bacillus subtilis, Bacillus subtilis (Ehrenberg 1835) Cohn 1872 NRRL: B-571, read-out: MIC

SMILES: Brc1ccc(Sc2c[nH]c3cc(Br)ccc23)cc1 [Compound 174A, 6-bromo-3-((4-bromophenyl)thio)-1H-indole]
- MIC [1]: 1.56 µg/mL (≈ 4.07 µM)
- MIC [2]: > 50 µg/mL
- MBC [3]: 3.13 µg/mL (≈ 8.17 µM)
- MIC [3]: 3.13 µg/mL (≈ 8.17 µM)
- MIC [4]: 12.5 µg/mL (≈ 32.6 µM)
- MBC [5]: 6.25 µg/mL (≈ 16.3 µM)
- MIC [5]: 3.13 µg/mL (≈ 8.17 µM)

SMILES: Clc1cc(Cl)c(Sc2c[nH]c3ccc(Br)cc23)c(Cl)c1 [Compound 174AG, 5-bromo-3-((2,4,6-trichlorophenyl)thio)-1H-indole]
- MIC [2]: > 50 µg/mL
- MBC [3]: > 50 µg/mL
- MIC [3]: 4 µg/mL (≈ 9.81 µM)
- MFC [4]: > 50 µg/mL
- MIC [4]: 6.25 µg/mL (≈ 15.3 µM)
- MBC [5]: > 50 µg/mL
- MIC [5]: 4 µg/mL (≈ 9.81 µM)

SMILES: Brc1ccc2[nH]cc(Sc3ccccc3)c2c1 [Compound 174AA, 5-bromo-3-(phenylthio)-1H-indole]
- MIC [1]: 4 µg/mL (≈ 13.1 µM)
- MIC [2]: > 50 µg/mL
- MBC [3]: 16 µg/mL (≈ 52.6 µM)
- MIC [3]: 8 µg/mL (≈ 26.3 µM)
- MFC [4]: 6.25 µg/mL (≈ 20.5 µM)
- MIC [4]: 3.13 µg/mL (≈ 10.3 µM)
- MBC [5]: 16 µg/mL (≈ 52.6 µM)
- MIC [5]: 4 µg/mL (≈ 13.1 µM)

SMILES: Oc1ccc2[nH]cc(Sc3ccccc3Br)c2c1 [Compound 174AR, 3-((2-bromophenyl)thio)-1H-indol-5-ol]
- MIC [1]: 4 µg/mL (≈ 12.5 µM)
- MIC [4]: 50 µg/mL (≈ 156 µM)
- MIC [5]: 8 µg/mL (≈ 25 µM)

SMILES: Clc1cc2[nH]cc(Sc3ccc(Br)cc3)c2cc1Br [Compound 174AF, 5-bromo-3-((4-bromophenyl)thio)-6-chloro-1H-indole]
- MIC [1]: 4 µg/mL (≈ 9.58 µM)
- MIC [2]: > 50 µg/mL
- MBC [3]: 4 µg/mL (≈ 9.58 µM)
- MIC [3]: 2 µg/mL (≈ 4.79 µM)
- MIC [4]: > 50 µg/mL
- MBC [5]: 50 µg/mL (≈ 120 µM)
- MIC [5]: 4 µg/mL (≈ 9.58 µM)

SMILES: Oc1ccc2[nH]cc(Sc3ccccc3O)c2c1 [Compound 174AP, 3-((2-hydroxyphenyl)thio)-1H-indol-5-ol]
- MIC [1]: 50 µg/mL (≈ 194 µM)
- MIC [4]: > 50 µg/mL
- MIC [5]: 50 µg/mL (≈ 194 µM)

SMILES: COc1ccc2[nH]cc(Sc3ccccc3O)c2c1 [Compound 174AQ, 2-((5-methoxy-1H-indol-3-yl)thio)phenol]
- MIC [1]: 16 µg/mL (≈ 59 µM)
- MIC [4]: 50 µg/mL (≈ 184 µM)
- MIC [5]: 32 µg/mL (≈ 118 µM)

SMILES: Brc1ccc(Sc2c[nH]c3c(Br)cc(Br)cc23)cc1 [Compound 174AC, 5,7-dibromo-3-((4-bromophenyl)thio)-1H-indole]
- MIC [2]: > 50 µg/mL
- MBC [3]: 50 µg/mL (≈ 108 µM)
- MIC [3]: 8 µg/mL (≈ 17.3 µM)
- MIC [4]: 25 µg/mL (≈ 54.1 µM)
- MBC [5]: 16 µg/mL (≈ 34.6 µM)
- MIC [5]: 8 µg/mL (≈ 17.3 µM)

SMILES: Clc1ccccc1Sc1c[nH]c2ccc(Br)cc12 [Compound 174AJ, 5-bromo-3-((2-chlorophenyl)thio)-1H-indole]
- MIC [2]: > 50 µg/mL
- MBC [3]: 1.56 µg/mL (≈ 4.61 µM)
- MIC [3]: 0.78 µg/mL (≈ 2.3 µM)
- MFC [4]: 25 µg/mL (≈ 73.8 µM)
- MIC [4]: 6.25 µg/mL (≈ 18.5 µM)
- MBC [5]: 3.13 µg/mL (≈ 9.24 µM)
- MIC [5]: 0.78 µg/mL (≈ 2.3 µM)
